Laboratory results reported in patent US9458137B2, “Substituted indol-5-ol derivatives and their therapeutical applications” (NantBioScience, Inc., priority 2012, dated 2016).

Assays:
Assay in all cases: Kinase panel activity
Assay type in all cases: biochemical
Conditions in all cases: 0.1 μM, ATP Km
[1] = molecular target: 1tk(h) (Homo sapiens, UniProt Q08881)
Experimental: (§1) The effect of NTW-3475 on kinase activity was tested for a wide range of kinases and is shown in Table 2: Summary Sheet, Activity % ATP Concentration: Km

[2] = molecular target: ACK1(h) (Homo sapiens, UniProt Q07912)
Experimental: as §1

[3] = molecular target: Ab1(h) (Homo sapiens, UniProt P00519)
Experimental: as §1

[4] = molecular target: Ab1(m) (Mus musculus, UniProt P00520)
Experimental: as §1

[5] = molecular target: BTK(R28H)(h) (Homo sapiens, UniProt Q06187, R28H)
Experimental: as §1

[6] = molecular target: CDK2/cyclinE(h) (Homo sapiens, UniProt P24941)
Experimental: as §1

[7] = molecular target: CDK3/cyclinE(h) (Homo sapiens, UniProt Q00526)
Experimental: as §1

[8] = molecular target: CDK5/p35(h) (Homo sapiens, UniProt Q00535)
Experimental: as §1

[9] = molecular target: CDK6/cyclinD3(h) (Homo sapiens, UniProt Q00534)
Experimental: as §1

[10] = molecular target: CHK2(h) (Homo sapiens, UniProt O96017)
Experimental: as §1

[11] = molecular target: CaMKIV(h) (Homo sapiens, UniProt Q16566)
Experimental: as §1

[12] = molecular target: DAPK1(h) (Homo sapiens, UniProt P53355)
Experimental: as §1

[13] = molecular target: T1, EphA1(h) (Homo sapiens, UniProt P21709)
T1 construct: purchased Millipore (KinaseProfiler service)
Experimental: as §1

[14] = molecular target: T2, EphA2(h) (Homo sapiens, UniProt P29317)
T2 construct: purchased Millipore (KinaseProfiler service)
Experimental: as §1

[15] = molecular target: T3, EphA4(h) (Homo sapiens, UniProt P54764)
T3 construct: purchased Millipore (KinaseProfiler service)
Experimental: as §1

[16] = molecular target: F1t1(h) (Homo sapiens, UniProt P17948)
Experimental: as §1

[17] = molecular target: F1t3(h) (Homo sapiens, UniProt P36888)
Chain of F1t3(h) (P36888 27-993): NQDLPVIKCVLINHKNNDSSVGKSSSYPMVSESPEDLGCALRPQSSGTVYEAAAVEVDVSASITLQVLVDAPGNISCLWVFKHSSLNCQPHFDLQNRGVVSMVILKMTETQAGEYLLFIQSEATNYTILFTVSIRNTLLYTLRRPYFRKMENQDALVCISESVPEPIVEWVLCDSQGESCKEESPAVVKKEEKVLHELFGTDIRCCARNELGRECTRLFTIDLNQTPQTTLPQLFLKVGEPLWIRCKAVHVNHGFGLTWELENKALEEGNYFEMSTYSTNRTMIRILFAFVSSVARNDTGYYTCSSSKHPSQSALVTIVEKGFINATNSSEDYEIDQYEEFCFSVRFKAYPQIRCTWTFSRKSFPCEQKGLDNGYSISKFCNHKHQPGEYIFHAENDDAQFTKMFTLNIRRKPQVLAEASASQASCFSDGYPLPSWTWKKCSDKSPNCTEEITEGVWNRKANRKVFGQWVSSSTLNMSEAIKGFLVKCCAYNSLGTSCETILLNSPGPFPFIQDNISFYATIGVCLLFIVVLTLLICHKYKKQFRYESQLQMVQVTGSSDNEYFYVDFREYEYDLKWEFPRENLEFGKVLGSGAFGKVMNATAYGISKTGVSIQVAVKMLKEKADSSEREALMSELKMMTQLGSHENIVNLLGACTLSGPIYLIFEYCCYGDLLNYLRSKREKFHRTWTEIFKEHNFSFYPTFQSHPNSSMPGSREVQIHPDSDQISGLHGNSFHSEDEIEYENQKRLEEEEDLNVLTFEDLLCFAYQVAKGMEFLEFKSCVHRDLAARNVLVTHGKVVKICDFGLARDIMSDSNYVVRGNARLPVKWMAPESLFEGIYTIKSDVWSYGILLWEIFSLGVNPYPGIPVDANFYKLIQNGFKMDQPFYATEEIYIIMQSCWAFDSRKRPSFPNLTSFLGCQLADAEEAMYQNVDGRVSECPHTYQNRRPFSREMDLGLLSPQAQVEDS
Experimental: as §1

[18] = molecular target: Fgr(h) (Homo sapiens, UniProt P09769)
Experimental: as §1

[19] = molecular target: GCK(h) (Homo sapiens, UniProt Q12851)
Chain of GCK(h) (Q12851 whole entry): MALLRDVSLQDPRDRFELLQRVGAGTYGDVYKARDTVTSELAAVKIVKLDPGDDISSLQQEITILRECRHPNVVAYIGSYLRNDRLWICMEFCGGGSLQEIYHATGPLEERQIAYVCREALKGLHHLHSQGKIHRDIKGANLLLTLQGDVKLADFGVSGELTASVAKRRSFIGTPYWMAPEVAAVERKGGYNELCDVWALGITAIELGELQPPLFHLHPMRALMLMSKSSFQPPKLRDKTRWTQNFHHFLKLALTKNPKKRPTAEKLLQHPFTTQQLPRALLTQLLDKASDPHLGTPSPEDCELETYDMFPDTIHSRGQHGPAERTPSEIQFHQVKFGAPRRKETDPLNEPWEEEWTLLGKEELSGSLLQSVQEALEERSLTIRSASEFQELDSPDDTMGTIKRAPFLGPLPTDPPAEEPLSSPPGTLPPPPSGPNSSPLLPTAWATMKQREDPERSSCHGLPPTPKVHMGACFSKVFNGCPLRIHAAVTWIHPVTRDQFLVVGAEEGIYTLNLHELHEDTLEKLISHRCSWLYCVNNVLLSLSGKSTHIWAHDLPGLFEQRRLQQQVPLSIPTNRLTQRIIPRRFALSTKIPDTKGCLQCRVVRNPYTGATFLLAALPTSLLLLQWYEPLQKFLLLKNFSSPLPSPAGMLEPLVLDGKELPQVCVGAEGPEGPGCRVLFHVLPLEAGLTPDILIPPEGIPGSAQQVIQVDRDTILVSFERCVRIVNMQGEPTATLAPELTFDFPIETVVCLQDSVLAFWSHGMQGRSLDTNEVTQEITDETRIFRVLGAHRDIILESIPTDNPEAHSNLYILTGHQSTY
Experimental: as §1

[20] = molecular target: GRK7(h) (Homo sapiens, UniProt Q8WTQ7)
Experimental: as §1

[21] = molecular target: GSK3β(h) (Homo sapiens, UniProt P49841)
Experimental: as §1

[22] = molecular target: HIPK3(h) (Homo sapiens, UniProt Q9H422)
Experimental: as §1

[23] = molecular target: IRAK4(h) (Homo sapiens, UniProt Q9NWZ3)
Experimental: as §1

[24] = molecular target: IRR(h) (Homo sapiens, UniProt P14616)
Chain of IRR(h) (P14616 27-1297): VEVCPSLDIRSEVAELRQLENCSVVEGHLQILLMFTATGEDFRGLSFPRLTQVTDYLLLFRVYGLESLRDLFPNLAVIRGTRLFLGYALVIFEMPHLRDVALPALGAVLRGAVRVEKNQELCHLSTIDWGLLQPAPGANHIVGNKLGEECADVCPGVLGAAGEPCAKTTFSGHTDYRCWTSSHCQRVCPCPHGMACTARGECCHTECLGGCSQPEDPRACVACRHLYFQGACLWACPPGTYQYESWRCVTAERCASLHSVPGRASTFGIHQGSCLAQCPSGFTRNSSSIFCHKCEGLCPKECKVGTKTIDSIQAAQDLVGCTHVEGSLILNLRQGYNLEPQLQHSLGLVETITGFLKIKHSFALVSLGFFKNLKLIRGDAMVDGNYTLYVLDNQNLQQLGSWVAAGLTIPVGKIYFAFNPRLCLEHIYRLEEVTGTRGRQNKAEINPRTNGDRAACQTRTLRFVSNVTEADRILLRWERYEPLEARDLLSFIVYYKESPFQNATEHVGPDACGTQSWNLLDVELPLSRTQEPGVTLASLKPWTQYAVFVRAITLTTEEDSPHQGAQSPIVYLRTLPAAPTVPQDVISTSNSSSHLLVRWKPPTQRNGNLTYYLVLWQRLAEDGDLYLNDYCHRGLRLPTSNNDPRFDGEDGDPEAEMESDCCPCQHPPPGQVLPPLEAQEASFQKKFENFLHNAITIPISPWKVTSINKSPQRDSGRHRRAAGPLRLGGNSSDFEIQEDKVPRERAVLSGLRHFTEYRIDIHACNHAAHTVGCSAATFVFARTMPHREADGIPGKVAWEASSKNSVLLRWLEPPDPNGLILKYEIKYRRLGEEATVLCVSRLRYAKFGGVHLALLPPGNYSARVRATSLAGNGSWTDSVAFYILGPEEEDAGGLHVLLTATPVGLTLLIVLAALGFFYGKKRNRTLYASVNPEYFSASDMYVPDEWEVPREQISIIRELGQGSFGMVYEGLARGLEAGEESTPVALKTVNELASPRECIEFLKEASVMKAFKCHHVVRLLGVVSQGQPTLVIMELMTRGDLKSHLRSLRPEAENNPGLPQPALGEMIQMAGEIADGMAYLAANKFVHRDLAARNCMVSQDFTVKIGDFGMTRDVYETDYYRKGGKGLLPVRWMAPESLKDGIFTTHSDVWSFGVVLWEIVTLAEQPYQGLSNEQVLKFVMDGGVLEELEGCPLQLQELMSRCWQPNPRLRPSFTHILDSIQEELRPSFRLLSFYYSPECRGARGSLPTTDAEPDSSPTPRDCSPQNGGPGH
Experimental: as §1

[25] = molecular target: Lyn(h) (Homo sapiens, UniProt P07948)
Experimental: as §1

[26] = molecular target: T4, MAPKAP-K2(h) (Homo sapiens, UniProt P49137)
T4 construct: purchased Millipore (KinaseProfiler service)
T4 sequence (P49137 whole entry): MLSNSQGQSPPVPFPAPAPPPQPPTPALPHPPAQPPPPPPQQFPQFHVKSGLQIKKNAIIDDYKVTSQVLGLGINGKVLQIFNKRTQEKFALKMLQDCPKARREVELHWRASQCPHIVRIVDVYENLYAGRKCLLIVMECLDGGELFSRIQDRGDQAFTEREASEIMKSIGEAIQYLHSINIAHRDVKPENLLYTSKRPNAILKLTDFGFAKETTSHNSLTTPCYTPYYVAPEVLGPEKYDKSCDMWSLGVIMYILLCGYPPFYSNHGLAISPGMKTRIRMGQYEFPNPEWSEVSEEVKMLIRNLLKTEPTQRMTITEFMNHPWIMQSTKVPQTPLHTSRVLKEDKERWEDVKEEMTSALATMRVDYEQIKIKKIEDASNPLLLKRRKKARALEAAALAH
Experimental: as §1

[27] = molecular target: MST1(h) (Homo sapiens, UniProt Q13043)
Experimental: as §1

[28] = molecular target: T5, Met(Y1248H)(h) (Homo sapiens, UniProt P08581, Y1230H)
T5 construct: purchased Millipore (KinaseProfiler service)
Experimental: as §1

[29] = molecular target: PDGFRα(h) (Homo sapiens, UniProt P16234)
Experimental: as §1

[30] = molecular target: PDK1(h) (Homo sapiens, UniProt O15530)
Chain of PDK1(h) (O15530 whole entry): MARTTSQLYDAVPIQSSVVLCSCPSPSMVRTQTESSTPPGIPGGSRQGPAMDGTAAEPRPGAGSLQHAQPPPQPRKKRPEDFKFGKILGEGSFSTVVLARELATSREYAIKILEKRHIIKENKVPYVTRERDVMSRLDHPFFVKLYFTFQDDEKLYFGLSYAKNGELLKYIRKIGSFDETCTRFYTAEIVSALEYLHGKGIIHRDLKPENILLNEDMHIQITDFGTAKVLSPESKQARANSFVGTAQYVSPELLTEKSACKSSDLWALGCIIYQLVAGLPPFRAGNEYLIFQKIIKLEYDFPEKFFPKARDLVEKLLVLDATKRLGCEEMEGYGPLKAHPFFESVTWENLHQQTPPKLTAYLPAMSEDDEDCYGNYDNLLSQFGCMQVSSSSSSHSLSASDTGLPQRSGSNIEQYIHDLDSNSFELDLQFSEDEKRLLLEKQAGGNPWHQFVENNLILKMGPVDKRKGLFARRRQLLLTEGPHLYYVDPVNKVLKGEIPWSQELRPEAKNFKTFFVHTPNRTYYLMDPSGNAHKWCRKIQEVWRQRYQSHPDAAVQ
Experimental: as §1

[31] = molecular target: T6, PRK2(h) (Homo sapiens, UniProt Q16513)
T6 construct: purchased Millipore (KinaseProfiler service)
Experimental: as §1

[32] = molecular target: Pim-2(h) (Homo sapiens, UniProt Q9P1W9)
Experimental: as §1

[33] = molecular target: T7, SAPK3(h) (Homo sapiens, UniProt P53778)
T7 construct: purchased Millipore (KinaseProfiler service)
Experimental: as §1

[34] = molecular target: T8, SRPK2(h) (Homo sapiens, UniProt P78362)
T8 construct: purchased Millipore (KinaseProfiler service)
Experimental: as §1

[35] = molecular target: T9, STK33(h) (Homo sapiens, UniProt Q9BYT3)
T9 construct: purchased Millipore (KinaseProfiler service)
T9 sequence (Q9BYT3 whole entry): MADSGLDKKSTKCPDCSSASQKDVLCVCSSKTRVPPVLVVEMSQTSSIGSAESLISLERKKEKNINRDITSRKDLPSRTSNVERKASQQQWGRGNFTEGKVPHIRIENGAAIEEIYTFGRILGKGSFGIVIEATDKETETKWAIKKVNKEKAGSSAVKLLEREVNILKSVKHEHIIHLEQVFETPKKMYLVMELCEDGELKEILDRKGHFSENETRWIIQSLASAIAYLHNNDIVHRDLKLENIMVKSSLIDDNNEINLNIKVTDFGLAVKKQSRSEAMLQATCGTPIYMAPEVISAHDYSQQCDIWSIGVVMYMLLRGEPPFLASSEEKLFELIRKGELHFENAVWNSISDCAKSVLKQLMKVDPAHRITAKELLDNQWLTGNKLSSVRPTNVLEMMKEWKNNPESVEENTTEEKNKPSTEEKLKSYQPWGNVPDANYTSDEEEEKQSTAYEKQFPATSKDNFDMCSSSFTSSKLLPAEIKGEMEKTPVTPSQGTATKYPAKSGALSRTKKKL
Experimental: as §1

[36] = molecular target: T10, Snk(h) (Homo sapiens, UniProt Q9NYY3)
T10 construct: purchased Millipore (KinaseProfiler service)
Experimental: as §1

[37] = molecular target: T11, Src(1-530)(h) (Homo sapiens, UniProt P12931)
T11 construct: Src(1-530)(h); purchased Millipore (KinaseProfiler service)
T11 sequence (P12931 1-530): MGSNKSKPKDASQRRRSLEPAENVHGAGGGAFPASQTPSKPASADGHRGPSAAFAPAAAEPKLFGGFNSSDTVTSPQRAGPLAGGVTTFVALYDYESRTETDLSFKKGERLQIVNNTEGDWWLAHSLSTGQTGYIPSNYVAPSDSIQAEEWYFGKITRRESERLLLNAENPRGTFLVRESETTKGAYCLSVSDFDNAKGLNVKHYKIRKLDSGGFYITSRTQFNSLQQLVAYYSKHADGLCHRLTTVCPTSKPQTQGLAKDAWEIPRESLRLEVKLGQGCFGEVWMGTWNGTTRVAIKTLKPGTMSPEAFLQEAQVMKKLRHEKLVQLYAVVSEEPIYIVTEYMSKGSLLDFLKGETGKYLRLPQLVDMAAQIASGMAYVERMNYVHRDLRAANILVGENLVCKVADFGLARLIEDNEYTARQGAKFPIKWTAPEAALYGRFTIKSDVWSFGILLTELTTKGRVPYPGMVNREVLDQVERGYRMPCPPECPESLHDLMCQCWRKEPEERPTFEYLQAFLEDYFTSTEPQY
Experimental: as §1

[38] = molecular target: T12, Syk(h) (Homo sapiens, UniProt P43405)
T12 construct: purchased Millipore (KinaseProfiler service)
Experimental: as §1

[39] = molecular target: ZAP-70(h) (Homo sapiens, UniProt P43403)
Experimental: as §1

[40] = molecular target: mTOR(h) (Homo sapiens, UniProt P42345)
Experimental: as §1

Activity % [1]: 29%
Activity % [2]: 4%
Activity % [3]: −9%
Activity % [4]: −2%
Activity % [5]: 103%
Activity % [6]: 89%
Activity % [7]: 59%
Activity % [8]: 77%
Activity % [9]: 65%
Activity % [10]: 95%
Activity % [11]: 106%
Activity % [12]: 88%
Activity % [13]: 12%
Activity % [14]: −1%
Activity % [15]: 23%
Activity % [16]: 11%
Activity % [17]: 1%
Activity % [18]: 2%
Activity % [19]: 13%
Activity % [20]: 97%
Activity % [21]: 106%
Activity % [22]: 88%
Activity % [23]: 67%
Activity % [24]: 6%
Activity % [25]: 5%
Activity % [26]: 105%
Activity % [27]: 24%
Activity % [28]: 16%
Activity % [29]: 67%
Activity % [30]: 103%
Activity % [31]: 30%
Activity % [32]: 96%
Activity % [33]: 115%
Activity % [34]: 99%
Activity % [35]: 101%
Activity % [36]: 97%
Activity % [37]: −2%
Activity % [38]: 84%
Activity % [39]: 110%
Activity % [40]: 115%
SMILES: Cc1cc2c(F)c(Oc3nc(Nc4cc(C5CC5)[nH]n4)cc(N4CCN(C)CC4)n3)cc(F)c2[nH]1 [NTW-3475]
